Laboratory results from US20230165843A1, “USE AND PHARMACEUTICAL COMPOSITION OF PHENYLISOXAZOLYL METHYLENE-NAPHTHALENE-ETHER DERIVATIVES” (priority 2019, published 2023).

Tests used:
HBV (D type) = assay: PHH (Primary Human Hepatocyte) Assay, HBV infection; assay type: cell-based, hepatitis B virus; details: PHH cells infected with HBV (D type); for inhibition of HBV RNA: culture supernatant day 9, RT-qPCR, FIG. 3; for inhibition of extracellular HBV DNA: culture supernatant day 9, qPCR, FIG. 1; for inhibition of HBsAg: culture supernatant day 9, FIG. 2
Method: PHH (Primary Human Hepatocyte) Assay: Cell Line and Compound Treatment
The PHH cells were seeded into the 48-well plates at the density of 1.32×10^5 cells/well. The PHH cells seeding date was defined as day 0. The PHH cells were infected with HBV (D type) at 1600 GE/cell on day 1. The culture medium containing compounds was refreshed on day 2, 4, 6 and day 8. On day 9, the cells were treated with CCK8 and culture supernatant and cells were collected.
FXR Compounds were tested at 10000.0, 3000.0, 1000.0, 300.0, 100.0, 30.0, and 10.0 nM, and ETV was tested at 0.2000, 0.0667, 0.0222, 0.0074, 0.0025, 0.0008, and 0.0003 nM. 1% DMSO was used as non-treatment control. The supernatants on day 9 were collected, and analyzed for HBV DNA by qPCR, HBV RNA by RT-qPCR, HBsAg and HBeA by ELISA.
DNA in the culture supernatants was isolated with the QIAamp 96 DNA Blood Kit according to the manual and quantified by the qPCR. 80 μl of the culture supernatants sample was used to extract DNA. The elution volume was 120 μl. The PCR mix (8 μl/well) and the samples (2 μl/well) or plasmid standards (2 μl/well) were added to the 384-well optical reaction plate and performed using the following program: 95C for 10 min, then cycling at 95° C. 15 sec, 60° C. 1 min for 40 cycles.
RNA in the culture supernatants was isolated with the PureLink™ Pro 96 Viral RNA Kit according to the manual. 35 μl of the culture supernatants sample was used to extract RNA. The elution volume was 100 μl. HBV RNA was quantified by RT-qPCR.
For HepG2-NTCP Assay, HBsAg and HBeAg in the samples harvested on day 9 were measured by the HBsAg ELISA kit (Autobio) and HBeAg ELISA kit (Autobio) according to the manual. For PHH assay, Chemiluminescence Apparatu was used to measure HBsAg according to the Antu HBsAg ELISA kit manual.
% HBV DNA inhibition=(1−HBV DNA copy number of test sample/avg. HBV DNA copy number of 1% DMSO control)×100%
% HBV RNA inhibition=(1−HBV RNA copy number of test sample/avg. HBV RNA copy number of 1% DMSO control)×100%
% HBsAg inhibition=(1−HBsAg quantity of sample/HBsAg quantity of 1% DMSO control)×100%
The EC50 and CC50 values were determined by dose-response curves fitted by GraphPad Prism using “log (agonist) vs. response-variable slope”.

HBV (rAAV8-1.3HBV) = assay: AAV/HBV Mouse Model; assay type: in vivo, mice
From the text: AAV/HBV Mouse Model and Compound Treatment
Male C57BL′6 mice of 5-week old (obtained from Shanghai Jihui Laboratory Animal Care Co., Ltd) were given rAAV8-1.3HBV (1×1011 v.g.) via tail vein to establish infection on Day −28. After 14 days, 21 days, and on Day −4, blood was drawn from submandibular vein to determine the level of HBV DNA, and HBsAg. On Day-4, 40 mice were chosen based on HBV DNA, and HBsAg results, and were randomly assigned to 5 groups. After the mice were infected with HBV virus for 28 days, treatment was given orally once per day, for 4 weeks. Group 1 was given vehicle (0.5% CMC-Na, 10 ml/kg), Group 2 was given positive control ETV (0.1 mg/kg). Groups 3, 4, and 5 were given Compound 33 at 10 mg/kg, 30 mg/kg, and 60 mg/kg, respectively. Blood was drawn from submandibular vein every week to determine the concentration of HBV DNA, HBV RNA, and HBsAg. On Day 28, blood was taken from the heart.
HBV DNA determination by qPCR. DNA in the mice plasma was isolated with the QIAamp 96 DNA Blood Kit according to the manual and quantified by the qPCR, and performed using the following program: 95C for 10 min, then cycling at […] 15 sec, 60° C. 1 min for 40 cycles.
HBV RNA determination by qPCR. RNA in the mice plasma was isolated with the PureLink™ Pro 96 Viral RNA/DNA Kit according to the manual. 20 μl of the plasma was used to extract RNA
HBsAg determination by ELISA. HBsAg in the samples was measured by the HBsAg ELISA kit (Autobio) according to the manual. Briefly, after the plasma was diluted 1200× in a coated plate, and incubate with the enzyme conjugated ([…], 60 min), and the plate was washed 5 time. Substrate was added, and it was kept from light at room temperature for 10 min and intensity was measured by a plated reader.
Average±Standard deviation was calculated for each group, and analyzed with Student's t-test.

[1] = positive control 0.1 mg/kg orally once per day, 4 weeks

Compound	inhibition of HBV RNA (HBV (D type))	inhibition of extracellular HBV DNA (HBV (D type))	inhibition of HBsAg (HBV (D type))	HBsAg, lowered as compared to the vehicle group (HBV (rAAV8-1.3HBV); high dose group 60 mg/kg orally once per day, 28 days, FIG. 6)	HBV RNA, lower than the vehicle group (HBV (rAAV8-1.3HBV); high dose group 60 mg/kg orally once per day, 28 days, significantly lower than vehicle (p<0.01), FIG. 5)	HBV DNA, lower than the vehicle group (HBV (rAAV8-1.3HBV); high dose group 60 mg/kg orally once per day, 28 days, significantly lower than vehicle (p<0.05), FIG. 4)	effect on HBV RNA as compared to the vehicle group (HBV (rAAV8-1.3HBV); [1])	effect on HBsAg as compared to the vehicle group (HBV (rAAV8-1.3HBV); [1])
O=C(O)c1ccc(Oc2ccc3cc(OCc4c(-c5c(Cl)cccc5Cl)noc4C4CC4)ccc3c2)nc1 [Compound 1, 6-((6-((5-cyclopropyl-3-(2,6-dichlorophenyl)isoxazol-4-yl)methoxy)naphthalen-2-yl)oxy)nicotinic acid]	dose-dependent inhibition	dose-dependent inhibition	dose-dependent inhibition	–	–	–	–	–
O=C(O)c1ccc(Oc2cccc3cc(OCc4c(-c5c(Cl)cccc5Cl)noc4C4CC4)ccc23)nc1 [Compound 22, 6-((6-((5-cyclopropyl-3-(2,6-dichlorophenyl)isoxazol-4-yl)methoxy)naphthalen-1-yl)oxy)nicotinic acid]	dose-dependent inhibition	dose-dependent inhibition	dose-dependent inhibition	–	–	–	–	–
Cc1nc(Oc2cccc3cc(OCc4c(-c5c(Cl)cccc5Cl)noc4C4CC4)ccc23)ccc1C(=O)O [Compound 27, 6-((6-((5-cyclopropyl-3-(2,6-dichlorophenyl)isoxazol-4-yl)methoxy)naphthalen-1-yl)oxy)-2-methylnicotinic acid]	dose-dependent inhibition	dose-dependent inhibition	dose-dependent inhibition	–	–	–	–	–
O=C([O-])c1ccc(Oc2ccc3cc(OCc4c(-c5c(Cl)cccc5Cl)noc4C4CC4)ccc3c2)nc1.[Na+] [Compound 33, Sodium 6-((6-((5-cyclopropyl-3-(2,6-dichlorophenyl)isoxazol-4-yl)methoxy)naphthalen-2-yl)oxy)nicotinate]	–	–	–	0.38 log 10 [IU/ml]	0.60-0.66 log 10[RNA copy/uL]	0.77-1.12 log 10[DNA copy/uL]	–	–
C=C1[C@H](CO)[C@@H](O)C[C@@H]1n1cnc2c(=O)[nH]c(N)nc21 [ETV, entecavir, reference compound]	no significant inhibition	significant inhibition	no significant inhibition	–	–	–	no significant effect	no significant effect
